Several values for one entry are separate records, joined by “and”; a condition that tells them apart may be missing. Equal entries are not always repeated.

The assay deals with T1, H3 receptors (Cavia porcellus, UniProt Q9JI35).
T1 construct: The brain tissue was homogenized with a solution of 50 mM Tris, pH 7.5; from tissue; host or cells: guinea pig brain membranes
T1 sequence (Q9JI35 whole entry): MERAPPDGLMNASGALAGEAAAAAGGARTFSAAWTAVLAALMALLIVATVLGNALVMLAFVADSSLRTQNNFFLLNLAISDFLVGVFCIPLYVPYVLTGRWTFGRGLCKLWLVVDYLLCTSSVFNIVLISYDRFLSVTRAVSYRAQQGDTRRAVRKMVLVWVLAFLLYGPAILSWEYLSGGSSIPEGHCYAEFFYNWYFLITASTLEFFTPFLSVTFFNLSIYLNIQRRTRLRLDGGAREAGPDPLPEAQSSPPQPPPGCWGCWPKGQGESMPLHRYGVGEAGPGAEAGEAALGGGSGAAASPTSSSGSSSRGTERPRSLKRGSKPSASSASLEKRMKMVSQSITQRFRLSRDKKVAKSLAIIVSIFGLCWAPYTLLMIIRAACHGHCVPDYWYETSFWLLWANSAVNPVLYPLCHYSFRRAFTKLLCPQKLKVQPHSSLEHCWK
Description: H3-Receptor Binding Assay. The note with it: guinea pig brain membranes; 3 nM [3H]R-α-methyl histamine or 3 nM [3H]Nα-methyl histamine; 30° C., 30 min. How it is done: H3-Receptor Binding Assay
The source of the H3 receptors in this experiment was guinea pig brain. The animals weighed 400-600 g. The brain tissue was homogenized with a solution of 50 mM Tris, pH 7.5. The final concentration of tissue in the homogenization buffer was 10% w/v. The homogenates were centrifuged at 1,000×g for 10 min. in order to remove clumps of tissue and debris. The resulting supernatants were then centrifuged at 50,000×g for 20 min. in order to sediment the membranes, which were next washed three times in homogenization buffer (50,000×g for 20 min. each). The membranes were frozen and stored at −70° C. until needed.
All compounds to be tested were dissolved in DMSO and then diluted into the binding buffer (50 mM Tris, pH 7.5) such that the final concentration was 2 μg/ml with 0.1% DMSO. Membranes were then added (400 μg of protein) to the reaction tubes. The reaction was started by the addition of 3 nM [^3H]R-α-methyl histamine (8.8 Ci/mmol) or 3 nM [^3H]N^α-methyl histamine (80 Ci/mmol) and continued under incubation at 30° C. for 30 min. Bound ligand was separated from unbound ligand by filtration, and the amount of radioactive ligand bound to the membranes was quantitated by liquid scintillation spectrometry. All incubations were performed in duplicate and the standard error was always less than 10%. Compounds that inhibited more than 70% of the specific binding of radioactive ligand to the receptor were serially diluted to determine a Ki (nM).
Regarding `CON=C(c1ccc[n+]([O-])c1)C1CCN(C(=O)C2CCN(Cc3ccnc(N)c3)CC2)CC1` [Compound 92], the Ki (usually a measure of affinity in units of concentration, obtained from inhibition or displacement) was 0.25 to 33 nM. `CON=C(c1ccccc1F)C1CCN(C(=O)C2CCN(Cc3ccnc(N)c3)CC2)CC1` [Compound 219] gave a Ki of 0.25 to 33 nM. The figure for `CO/N=C(/c1ccccn1)C1CCN(C(=O)C2CCN([C@@H](C)c3ccnc(N)c3)CC2)CC1` [Compound 54] is 0.25 to 33 nM and 0.25 to 16 nM and 1.05 to 9.75 nM. The figure for `CO/N=C(/c1ccccn1)C1CCN(C(=O)C2CCN(Cc3ccnc(N)c3)CC2)CC1` [Compound 32] is 0.25 to 33 nM and 0.25 to 16 nM and 0.83 nM.

Take `Nc1cc(CN2CCC(C(=O)N3CCC(C(=O)c4ccccn4)CC3)CC2)ccn1` [Compound 30]: the Ki was 0.25 to 33 nM and 0.25 to 16 nM.

Take `CO/N=C(\c1ccccn1)C1CCN(C(=O)C2CCN([C@H](C)c3ccnc(N)c3)CC2)CC1` [Compound 57A]: the Ki lay within 0.25 to 33 nM. The figure for `CON=C(c1cccc(S(=O)(=O)N(C)C)c1)C1CCN(C(=O)C2CCN(Cc3ccnc(N)c3)CC2)CC1` [Compound 251] is 0.25 to 33 nM. Next, `CO/N=C(\c1ccc(Cl)cc1)C1CCN(C(=O)C2CCN(Cc3ccnc(N)c3)CC2)CC1` [Compound 224]: 0.25 to 33 nM; `CCON=C(c1ccc(F)cc1F)C1CCN(C(=O)C2CCN(Cc3ccnc(N)c3)CC2)CC1` [Compound 229]: 0.25 to 33 nM; `CO/N=C(/c1ccc(Cl)cc1)C1CCN(C(=O)C2CCN(Cc3ccncc3)CC2)CC1` [Compound 273]: 0.25 to 16 nM. For `CO/N=C(\c1ccccn1)C1CCN(C(=O)C2CCN(Cc3ccnc(N)c3)CC2)CC1` [Compound 33], the Ki is 0.25 to 33 nM and 0.25 to 16 nM. The figure for `Nc1cc(CN2CCC(C(=O)N3CCC(C(=NO)c4ccccn4)CC3)CC2)ccn1` [Compound 237] is 0.25 to 33 nM and 0.25 to 16 nM; for `CCON=C(c1ccccn1)C1CCN(C(=O)C2CCN(Cc3ccnc(N)c3)CC2)CC1` [Compound 246] it is 0.25 to 33 nM.

Compound `CON=C(c1ccccn1)C1CCN(C(=O)C2CCN(C(C)c3ccnc(N)c3)CC2)CC1` (stereo not drawn) [Compound 53] yielded a Ki of 0.25 to 33 nM. As to `CON=C(c1ccccc1Cl)C1CCN(C(=O)C2CCN(Cc3ccnc(N)c3)CC2)CC1` [Compound 220], the inhibitory constant (Ki) lay in the range of 0.25 to 33 nM. `CO/N=C(/c1ccc(Cl)cc1)C1CCN(C(=O)C2CCN(Cc3ccnc(N)c3)CC2)CC1` [Compound 225]: the Ki is 0.25 to 33 nM and 0.25 to 16 nM.

In the case of `CO/N=C(\c1ccccn1)C1CCN(C(=O)C2CCN([C@@H](C)c3ccnc(N)c3)CC2)CC1` [Compound 56], the Ki is 0.25 to 33 nM and 0.25 to 16 nM. The figure for `Nc1cc(CN2CCC(C(=O)N3CCC(C(=O)c4ccc5ccccc5n4)CC3)CC2)ccn1` [Compound 312] is 0.25 to 33 nM and 0.25 to 16 nM. Turning to `CON=C(c1ccccn1)C1CCN(C(=O)C2CCN(Cc3ccncc3N)CC2)CC1` [Compound 296], the Ki was 0.25 to 33 nM and 0.25 to 16 nM. The figure for `CON=C(c1ccc(Cl)cc1Cl)C1CCN(C(=O)C2CCN(C(C)c3ccnc(N)c3)CC2)CC1` (stereo not drawn) [Compound 233] is 0.25 to 33 nM; for `CON=C(c1ccc(Cl)cc1)C1CCN(C(=O)N2CCN(Cc3ccnc(N)c3)CC2)CC1` [Compound 215] it is 0.25 to 33 nM; for `CON=C(c1ncccn1)C1CCN(C(=O)C2CCN(Cc3ccnc(N)c3)CC2)CC1` [Compound 248] it is 0.25 to 33 nM. Next, `CON=C(c1cc(Cl)cc(Cl)c1)C1CCN(C(=O)C2CCN(Cc3ccnc(N)c3)CC2)CC1` [Compound 218]: 0.25 to 33 nM; `CON=C(c1ccccn1)C1CCN(C(=O)C2CCN(Cc3ccnc(N)c3)CC2)CC1` [Compound 31]: 0.25 to 33 nM and 0.25 to 16 nM; `CO/N=C(/c1ccccn1)C1CCN(C(=O)C2CCN(Cc3cnc(N)nc3)CC2)CC1` [Compound 287]: 0.25 to 33 nM and 0.25 to 16 nM and 1.05 to 9.75 nM. Turning to `Nc1cc(CN2CCC(C(=O)N3CCC(c4noc5cc(F)ccc45)CC3)CC2)ccn1` [Compound 23], the Ki lay in the range of 0.25 to 33 nM. Next, `CCON=C(c1ccc(Cl)cc1)C1CCN(C(=O)C2CCN(Cc3ccnc(N)c3)CC2)CC1` [Compound 212]: 0.25 to 33 nM; `CON=C(c1ccccc1)C1CCN(C(=O)C2CCN(Cc3ccnc(N)c3)CC2)CC1` [Compound 238]: 0.25 to 33 nM. The figure for `CON=C(c1ccsc1)C1CCN(C(=O)C2CCN(Cc3ccnc(N)c3)CC2)CC1` [Compound 235] is 0.25 to 33 nM; for `CON=C(C1CCCCC1)C1CCN(C(=O)C2CCN(Cc3ccnc(N)c3)CC2)CC1` [Compound 309] it is 0.25 to 33 nM and 0.25 to 16 nM; for `CO/N=C(/c1ccc(C(F)(F)F)cc1)C1CCN(C(=O)C2CCN(Cc3ccnc(N)c3)CC2)CC1` [Compound 226] it is 0.25 to 33 nM. Next, `O=C(C1CCN(Cc2ccncc2)CC1)N1CCC(/C(=N\O)c2ccc(F)cc2)CC1` [Compound 275]: 0.25 to 33 nM.

`CON=C(c1ccc(Cl)cc1)C1CCN(C(=O)C2CCN(C(C)c3ccnc(N)c3)CC2)CC1` (stereo not drawn) [Compound 227] gave a Ki of 0.25 to 33 nM. The figure for `CO/N=C(/c1ccccn1)C1CCN(C(=O)C2CCN([C@H](C)c3ccnc(N)c3)CC2)CC1` [Compound 55] is 0.25 to 33 nM and 0.25 to 16 nM and 1.05 to 9.75 nM; for `CON=C(c1csc(C)n1)C1CCN(C(=O)C2CCN(Cc3ccnc(N)c3)CC2)CC1` [Compound 253] it is 0.25 to 33 nM. The figure for `CON=C(c1ccc(Cl)cc1)C1CCN(C(=O)C2CCN(Cc3ccnc(N)c3)CC2)CC1` [Compound 280] is 0.25 to 16 nM. Next, `CO/N=C(/c1csc(C)n1)C1CCN(C(=O)C2CCN(Cc3ccnc(N)c3)CC2)CC1` [Compound 253A]: 0.25 to 33 nM and 0.25 to 16 nM and 1.05 to 9.75 nM. The compound `Nc1cc(CN2CCC(C(=O)N3CCC(/C(=N\OCC(F)(F)F)c4ncccc4F)CC3)CC2)ccn1` [Compound 320] gave an inhibition constant (Ki) of 1.05 to 9.75 nM. `Nc1cc(CN2CCC(C(=O)N3CCC(c4noc5ncccc45)CC3)CC2)ccn1` [Compound 247] yielded a Ki of 0.25 to 33 nM. Next, `CCO/N=C(/c1ccccn1)C1CCN(C(=O)C2CCN(Cc3ccnc(N)c3)CC2)CC1` [Compound 246A]: 0.25 to 33 nM and 0.25 to 16 nM; `CO/N=C(/c1ccccn1)C1CN(C(=O)C2CCN(Cc3ccnc(N)c3)CC2)C1` [Compound 301]: 0.25 to 33 nM and 0.25 to 16 nM. Next, `CON=C(c1ccc(Cl)cc1)C1CCN(C(=O)C2(O)CCN(Cc3ccnc(N)c3)CC2)CC1` [Compound 59]: 0.25 to 33 nM.

Values taken from US7300941B2, “Non-imidazole compounds” (Schering Corporation, priority 2000, dated 2007).
